The source of these data is US20250122208A1, “CHEMOKINE RECEPTOR MODULATORS AND USES THEREOF” (RAPT THERAPEUTICS, INC., priority 2023, published 2025).

In the assay the target is T1, CCR4 receptor (Homo sapiens, UniProt P51679).
T1 construct: beta-galactosidase enzyme-fragment tag; From own knowledge, PathHunter uses a ProLink/enzyme-donor fragment, usually at the receptor's C-terminus; expressed in transfected cells; host or cells: CHO-K1
T1 sequence (P51679 1-360): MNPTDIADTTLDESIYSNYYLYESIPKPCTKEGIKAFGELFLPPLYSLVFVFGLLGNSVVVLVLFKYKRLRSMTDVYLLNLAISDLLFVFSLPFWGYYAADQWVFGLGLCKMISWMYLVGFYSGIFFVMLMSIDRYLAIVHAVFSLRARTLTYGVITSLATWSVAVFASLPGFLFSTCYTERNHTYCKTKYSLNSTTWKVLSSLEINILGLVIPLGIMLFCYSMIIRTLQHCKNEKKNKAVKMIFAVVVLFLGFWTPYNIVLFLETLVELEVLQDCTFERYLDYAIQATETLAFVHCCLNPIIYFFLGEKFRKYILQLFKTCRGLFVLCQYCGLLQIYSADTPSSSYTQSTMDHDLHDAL
The experiment in a line: CCR4 antagonist activity in Beta-Arrestin Cellular Assay (PathHunter, CCL22 challenge). The class given is cell-based. To be noted: CHO-K1 cells expressing the CCR4 receptor; CCL22 at EC80 (15 nM), 90 minutes; 30 min pre-incubation; read-out: Potency (CCR4 antagonist IC50 in the β-arrestin assay). Here is the method: Example 39. Determination of CCR4 antagonist activity in Beta-Arrestin Cellular Assay
CCR4 Antagonistic Activity was assessed in Beta-Arrestin Cellular Assay. Compounds were assessed in CHO-K1 cells expressing the CCR4 receptor modified to enable β-glactosidase detection of β-arrestin agonist activity stimulated by CCL22 in a chemiluminescence assay. Cells were seeded in a total volume of 20 μL into white walled, 384-well microplates and incubated at 37° C. prior to testing. Cells were pre-incubated with test compound for 30 min at 37° C. followed by agonist challenge with CCL22 at the EC80 concentration (15 nM) for 90 minutes. Assay signal was generated through a single addition of 12.5 or 15 μL ([…]) of PathHunter Detection reagent cocktail, followed by a one-hour incubation at room temperature. Microplates were read following signal generation with a PerkinElmer Envision™ instrument for chemiluminescent signal detection. Antagonist activity was analyzed using CBIS data analysis suite (ChemInnovation, CA). Antagonist activity was characterized as percentage inhibition calculated using the following formula:
An IC50 of >500 nM is designated as Potency C, an IC50 of between 500 nM and 100 nM is designated as Potency B and an IC50 of <100 nM is designated as Potency A.
As for `C[C@@H](Nc1cc(N2CCC([C@H]3CCCN(Cc4nn[nH]n4)C3)CC2)nc2ncnn12)c1ccc(Cl)cc1Cl` [Example 2, 5-((R)-1-((2H-tetrazol-5-yl)methyl)-[3,4′-bipiperidin]-1′-yl)-N-((R)-1-(2,4-dichlorophenyl)ethyl)-[1,2,4]triazolo[1,5-a]pyrimidin-7-amine], the IC50 was under 100 nM.

With `CC(CCN1CCC[C@H](C2CCN(c3cc(N[C@H](C)c4ccc(Cl)cc4Cl)n4ncnc4n3)CC2)C1)C(=O)O` (mixture of isomers) [Example 16, 4-((R)-1′-(7-(((R)-1-(2,4-dichlorophenyl)ethyl)amino)-[1,2,4]triazolo[1,5-a]pyrimidin-5-yl)-[3,4′-bipiperidin]-1-yl)-2-methylbutanoic acid], the half-maximal inhibitory concentration (IC50) was under 100 nM.

As to `C[C@@H](Nc1cc(N2CCC([C@H]3CCCN(CCS(C)(=O)=O)C3)CC2)nc2ncnn12)c1ccc(Cl)cc1Cl` [Example 12, N-((R)-1-(2,4-dichlorophenyl)ethyl)-5-((R)-1-(2-(methylsulfonyl)ethyl)-[3,4′-bipiperidin]-1′-yl)-[1,2,4]triazolo[1,5-a]pyrimidin-7-amine], the IC50 is under 100 nM.

For `C[C@@H](Nc1cc(N2CCC([C@H]3CCCNC3)CC2)nc2ncnn12)c1ccc(Cl)cc1Cl` [Example 1, 5-((R)-[3,4′-bipiperidin]-1′-yl)-N-((R)-1-(2,4-dichlorophenyl)ethyl)-[1,2,4]triazolo[1,5-a]pyrimidin-7-amine], the IC50 was under 100 nM.

With `C[C@@H](Nc1cc(N2CCC([C@H]3CCCN(C)C3)CC2)nc2ncnn12)c1ccc(Cl)cc1Cl` [Example 9, N-((R)-1-(2,4-dichlorophenyl)ethyl)-5-((R)-1-methyl-[3,4′-bipiperidin]-1′-yl)-[1,2,4]triazolo[1,5-a]pyrimidin-7-amine], the concentration for half-maximal inhibition (IC50) is under 100 nM.

In the case of `Cc1cc(Cl)ccc1[C@@H](C)Nc1cc(N2CCC([C@H]3CCCN([C@H]4C[C@](C)(C(=O)O)C4)C3)CC2)nc2ccnn12` [Example 32, (1R,3r)-3-((R)-1′-(7-(((R)-1-(4-chloro-2-methylphenyl)ethyl)amino)pyrazolo[1,5-a]pyrimidin-5-yl)-[3,4′-bipiperidin]-1-yl)-1-methylcyclobutane-1-carboxylic acid], the IC50 is under 100 nM.

Turning to `C[C@@H](Nc1cc(N2CCC(C3CCCN(CCO)C3)C2)nc2ncnn12)c1ccc(Cl)cc1Cl` (single isomer, unassigned) [Example 23a], the concentration for half-maximal inhibition (IC50) was under 100 nM.

In the case of `C[C@@H](Nc1cc(N2CCC([C@H]3CCCN(CC#N)C3)CC2)nc2ncnn12)c1ccc(Cl)cc1Cl` [Example 3, 2-((R)-1′-(7-(((R)-1-(2,4-dichlorophenyl)ethyl)amino)-[1,2,4]triazolo[1,5-a]pyrimidin-5-yl)-[3,4′-bipiperidin]-1-yl)acetonitrile], the IC50 was under 100 nM.

As to `C[C@@H](Nc1cc(N2CCC([C@H]3CCCN(Cc4ncc[nH]4)C3)CC2)nc2ncnn12)c1ccc(Cl)cc1Cl` [Example 4, 5-((R)-1-((1H-imidazol-2-yl)methyl)-[3,4′-bipiperidin]-1′-yl)-N-((R)-1-(2,4-dichlorophenyl)ethyl)-[1,2,4]triazolo[1,5-a]pyrimidin-7-amine], the IC50 is under 100 nM.

With `C[C@@H](Nc1cc(N2CCC([C@H]3CCCN(C4CCCC4)C3)CC2)nc2ncnn12)c1ccc(Cl)cc1Cl` [Example 10, 5-((R)-1-cyclopentyl-[3,4′-bipiperidin]-1′-yl)-N-((R)-1-(2,4-dichlorophenyl)ethyl)-[1,2,4]triazolo[1,5-a]pyrimidin-7-amine], the IC50 was under 100 nM.

Regarding `Cc1cc(Cl)ccc1[C@@H](C)Nc1cc(N2CCC([C@H]3CCCN([C@H]4C[C@](C)(C(=O)O)C4)C3)CC2)nc2ncnn12` [Example 33, (1R,3r)-3-((R)-1′-(7-(((R)-1-(4-chloro-2-methylphenyl)ethyl)amino)-[1,2,4]triazolo[1,5-a]pyrimidin-5-yl)-[3,4′-bipiperidin]-1-yl)-1-methylcyclobutane-1-carboxylic acid], the IC50 was in the range of 100 to 500 nM.

Consider `Cc1cc(F)ccc1[C@@H](C)Nc1cc(N2CCC([C@H]3CCCN([C@H]4C[C@](C)(C(=O)O)C4)C3)CC2)nc2ccnn12` [Example 29, (1R,3r)-3-((R)-1′-(7-(((R)-1-(4-fluoro-2-methylphenyl)ethyl)amino)pyrazolo[1,5-a]pyrimidin-5-yl)-[3,4′-bipiperidin]-1-yl)-1-methylcyclobutane-1-carboxylic acid], for which the IC50 was under 100 nM.

As to `Cc1ccc([C@@H](C)Nc2cc(N3CCC([C@H]4CCCN([C@H]5C[C@](C)(C(=O)O)C5)C4)CC3)nc3ncnn23)c(Cl)c1` [Example 30, (1R,3r)-3-((R)-1′-(7-(((R)-1-(2-chloro-4-methylphenyl)ethyl)amino)-[1,2,4]triazolo[1,5-a]pyrimidin-5-yl)-[3,4′-bipiperidin]-1-yl)-1-methylcyclobutane-1-carboxylic acid], the IC50 is under 100 nM.

Consider `C[C@@H](Nc1cc(N2CCC([C@H]3CCCN([C@H]4C[C@](C)(C(=O)O)C4)C3)CC2)nc2ccnn12)c1ccc(Cl)cc1Cl` [Example 24, (1R,3r)-3-((R)-1′-(7-(((R)-1-(2,4-dichlorophenyl)ethyl)amino)pyrazolo[1,5-a]pyrimidin-5-yl)-[3,4′-bipiperidin]-1-yl)-1-methylcyclobutane-1-carboxylic acid], for which the IC50 was under 100 nM.

In the case of `Cc1ccc([C@@H](C)Nc2cc(N3CCC([C@H]4CCCN([C@H]5C[C@](C)(C(=O)O)C5)C4)CC3)nc3ccnn23)c(Cl)c1` [Example 31, (1R,3r)-3-((R)-1′-(7-(((R)-1-(2-chloro-4-methylphenyl)ethyl)amino)pyrazolo[1,5-a]pyrimidin-5-yl)-[3,4′-bipiperidin]-1-yl)-1-methylcyclobutane-1-carboxylic acid], the IC50 was under 100 nM.

Regarding `C[C@@H](Nc1cc(N2CCC([C@H]3CCCN(Cc4nc[nH]n4)C3)CC2)nc2ncnn12)c1ccc(Cl)cc1Cl` [Example 5, 5-((R)-1-((1H-1,2,4-triazol-3-yl)methyl)-[3,4′-bipiperidin]-1′-yl)-N-((R)-1-(2,4-dichlorophenyl)ethyl)-[1,2,4]triazolo[1,5-a]pyrimidin-7-amine], the IC50 is under 100 nM.

As for `C[C@@H](Nc1cc(N2CCC([C@H]3CCCN([C@H]4C[C@](C)(C(=O)O)C4)C3)CC2)nc2ccnn12)c1ccc(F)cc1Cl` [Example 25, (1R,3r)-3-((R)-1′-(7-(((R)-1-(2-chloro-4-fluorophenyl)ethyl)amino)pyrazolo[1,5-a]pyrimidin-5-yl)-[3,4′-bipiperidin]-1-yl)-1-methylcyclobutane-1-carboxylic acid], the IC50 was under 100 nM.

For the compound `CNC(=O)CCN1CCC[C@H](C2CCN(c3cc(N[C@H](C)c4ccc(Cl)cc4Cl)n4ncnc4n3)CC2)C1` [Example 17, 3-((R)-1′-(7-(((R)-1-(2,4-dichlorophenyl)ethyl)amino)-[1,2,4]triazolo[1,5-a]pyrimidin-5-yl)-[3,4′-bipiperidin]-1-yl)-N-methylpropanamide], the IC50 is under 100 nM.

For `C[C@@H](Nc1cc(N2CCC([C@H]3CCCN([C@H]4C[C@](C)(C(=O)O)C4)C3)CC2)nc2ccnn12)c1ccc(F)cc1F` [Example 34, (1R,3r)-3-((R)-1′-(7-(((R)-1-(2,4-difluorophenyl)ethyl)amino)pyrazolo[1,5-a]pyrimidin-5-yl)-[3,4′-bipiperidin]-1-yl)-1-methylcyclobutane-1-carboxylic acid], the IC50 is under 100 nM.

`Cc1cc(F)ccc1[C@@H](C)Nc1cc(N2CCC([C@H]3CCCN([C@H]4C[C@](C)(C(=O)O)C4)C3)CC2)nc2ncnn12` [Example 28, (1R,3r)-3-((R)-1′-(7-(((R)-1-(4-fluoro-2-methylphenyl)ethyl)amino)-[1,2,4]triazolo[1,5-a]pyrimidin-5-yl)-[3,4′-bipiperidin]-1-yl)-1-methylcyclobutane-1-carboxylic acid]: the IC50 is 100 to 500 nM.

Turning to `C[C@@H](Nc1cc(N2CCC([C@H]3CCCN(CCO)C3)CC2)nc2ncnn12)c1ccc(Cl)cc1Cl` [Example 8, 2-((R)-1′-(7-(((R)-1-(2,4-dichlorophenyl)ethyl)amino)-[1,2,4]triazolo[1,5-a]pyrimidin-5-yl)-[3,4′-bipiperidin]-1-yl)ethan-1-ol], the IC50 was under 100 nM.

Take `C[C@@H](Nc1cc(N2CCC([C@H]3CCCN(CC(F)(F)F)C3)CC2)nc2ncnn12)c1ccc(Cl)cc1Cl` [Example 7, N-((R)-1-(2,4-dichlorophenyl)ethyl)-5-((R)-1-(2,2,2-trifluoroethyl)-[3,4′-bipiperidin]-1′-yl)-[1,2,4]triazolo[1,5-a]pyrimidin-7-amine]: the half-inhibitory concentration (IC50) is over 500 nM.
